± gives the expanded uncertainty stated by the source.
Columns and labels:
[1] = Liquid; for mass density: 293.15 K, 101.33 kPa
[2] = refractive index (Na D-line) (dimensionless); details: 293.15 K; 101.33 kPa; Liquid; Standard Abbe refractometry

Structure (SMILES)	mass density [1]	Normal boiling temperature [1]	refractive index [2]	mass density ([1]; Vibrating tube method)
CCC(=O)O [propanoic acid]	992.7 ± 0.5 kg/m3	141.0 ± 0.1 °C	1.3811 ± 0.0008	
CCOC(=O)c1ccccc1C(=O)OCC [diethyl phthalate]		298.02 ± 0.1 °C	1.5003 ± 0.0008	1117.2 ± 0.6 kg/m3

Reference: the NIST ThermoML archive (doi:10.1016/j.jct.2005.02.005)
